Square brackets hold non-standard residues; d marks the D form. Ends that are not written are not given here. * marks the point of attachment. Dap = NC[C@H](N)C(=O)O; For = O=C*
System: PatD
Experiment: PatD enzyme reaction: introduction of azoline rings into substrate peptides, mass change read by MALDI-TOF-MS
Assay type: biochemical, Prochloron didemni
Details: for Dehydrated molecules: modification with PatD of synthesized substrates (Table 11-2)
Description: After the DNA prepared in 3-2 was transcribed and translated in a cell-free protein expression system of 2.5 μl scale in accordance with the method of Kawakami, et al. (Kawakami et al., Chemistry & Biology 15, 32-42 (2008)) and the solution conditions were adjusted by adding 40 mM Tris-HCl (pH 8.0), 8 mM DTT, 4 mM MgCl2, and 0.8 mM ATP (each, final concentration), recombinant PatD was added.
The reaction was conducted under two conditions as described below.
The mass of the peptide was measured using MALDI-TOF-MS by using sinapinic acid as a matrix and whether a mass change occurred or not by the addition of PatD was checked. The number of azoline rings introduced can be found from the mass change.

| Substance | Dehydrated molecules | other results |
| --- | --- | --- |
| Ac—LAELSEEALGDA-GGGGG-VXAXIXFX (X=Dap)-A: synthetic peptide significantly different from a natural substrate (FIG. 17) (Ac-LAELSEEALGDAGGGGGV[Dap]A[Dap]I[Dap]F[Dap]A) | 4 |  |
| C1wt: PatE precursor peptide, leader-GLEAS-cassette-AYDGVEPS; cassette VTACITFC, same as wild type PatE (GLEASVTACITFCAYDGVEPS; An example of Recognition Sequence 1 based on Prochloron didemni.; Amino acid sequence of cassette region of wild type PatE; An example of Recognition Sequence 2 based on Prochloron didemni.) |  | number of azoline rings introduced by PatD (modification with PatD, change in molecular weight by MALDI-TOF-MS): four |
| PatEC1wt-GS: precursor peptide; cassette VTACITFC, recognition sequence 2 AYDGVGSGSGS (GLEASVTACITFCAYDGVGSGSGS; An example of Recognition Sequence 1 based on Prochloron didemni.; Amino acid sequence of cassette region of wild type PatE; An example of Recognition Sequence 2 based on Prochloron didemni.) |  | number of heterocycles in C-terminal short peptide (treated with PatD and Glu-C, leader sequence cleaved): four |
| fMLAELSEEALGDA-GGGGG-VXAX (X=Dap)-A: PatD substrate with shortened leader, GGGGG and Dap in the cassette (For-MLAELSEEALGDAGGGGGV[Dap]A[Dap]A) | 1 |  |
| fMLAELSEEALGDA-GGGGG-VXAX (X=PhSer)-A: PatD substrate with shortened leader, GGGGG and PhSer in the cassette (For-MLAELSEEALGDAGGGGGV[PhSer]A[PhSer]A) | 1 |  |
| fMNKKNILPQQGQPVIRLTAGQLSSQLAELSEEALGDA-GLEAS-LCGCTSYCYTVS-AYDGV: PatD substrate: leader, recognition sequence 1, cassette, recognition sequence 2 (For-MNKKNILPQQGQPVIRLTAGQLSSQLAELSEEALGDAGLEASLCGCTSYCYTVSAYDGV; cysteine pairing not given here) | 2 |  |
| fMNKKNILPQQGQPVIRLTAGQLSSQLAELSEEALGDA-GLEAS-VXAX (X=Dap)-AYDGVEPS: PatD substrate with Dap in the cassette (For-MNKKNILPQQGQPVIRLTAGQLSSQLAELSEEALGDAGLEASV[Dap]A[Dap]AYDGVEPS) | 2 |  |

From patent US10197567B2, “Azoline compound and azole compound library and method for producing same” (The University of Tokyo, priority 2011, dated 2019)
